Measurements from patent US20140051601A1, “METABOLOMIC PROFILING OF CANCER” (METABOLAN INC., priority 2006, published 2014).

Key:
RWPE cells [1] = test: Sarcosine-induced invasion after pre-treatment with EGFR inhibitor; assay type: cell-based; conditions: pre-treatment of RWPE cells with 10 μM
From the text: (§1) To investigate the biological role of sarcosine elevation in prostate cancer, prostate cancer cell lines VCaP, DU145, 22RV1 and LNCaP and their benign epithelial counterparts, primary benign prostate epithelial cells PrEC and immortalized benign RWPE prostate cells were used.

[2] = tested on: benign prostate epithelial cells; test: Modified Boyden chamber matrigel invasion assay, exogenous addition of amino acids; assay type: cell-based; conditions: compared with sarcosine
Procedure: as §1
(§2) To determine if sarcosine plays a role in this process, it was added directly to non-invasive benign prostate epithelial cells. Alanine (an isomer of sarcosine) was used as a control for these experiments. […] The present invention is not limited to a particular mechanism. Indeed, an understanding of the mechanism is not necessary to practice the present invention.

RWPE cells [3] = test: Invasion upon exogenous sarcosine or glycine with siRNA knock-down of GNMT; assay type: cell-based
Procedure: as §2

EGFR = EGFR (Homo sapiens, UniProt P00533); test: Immunoblot analysis of EGFR phosphorylation and total EGFR; conditions: for total EGFR levels: upon treatment, PrEC
EGFR, sequence (P00533 25-1210): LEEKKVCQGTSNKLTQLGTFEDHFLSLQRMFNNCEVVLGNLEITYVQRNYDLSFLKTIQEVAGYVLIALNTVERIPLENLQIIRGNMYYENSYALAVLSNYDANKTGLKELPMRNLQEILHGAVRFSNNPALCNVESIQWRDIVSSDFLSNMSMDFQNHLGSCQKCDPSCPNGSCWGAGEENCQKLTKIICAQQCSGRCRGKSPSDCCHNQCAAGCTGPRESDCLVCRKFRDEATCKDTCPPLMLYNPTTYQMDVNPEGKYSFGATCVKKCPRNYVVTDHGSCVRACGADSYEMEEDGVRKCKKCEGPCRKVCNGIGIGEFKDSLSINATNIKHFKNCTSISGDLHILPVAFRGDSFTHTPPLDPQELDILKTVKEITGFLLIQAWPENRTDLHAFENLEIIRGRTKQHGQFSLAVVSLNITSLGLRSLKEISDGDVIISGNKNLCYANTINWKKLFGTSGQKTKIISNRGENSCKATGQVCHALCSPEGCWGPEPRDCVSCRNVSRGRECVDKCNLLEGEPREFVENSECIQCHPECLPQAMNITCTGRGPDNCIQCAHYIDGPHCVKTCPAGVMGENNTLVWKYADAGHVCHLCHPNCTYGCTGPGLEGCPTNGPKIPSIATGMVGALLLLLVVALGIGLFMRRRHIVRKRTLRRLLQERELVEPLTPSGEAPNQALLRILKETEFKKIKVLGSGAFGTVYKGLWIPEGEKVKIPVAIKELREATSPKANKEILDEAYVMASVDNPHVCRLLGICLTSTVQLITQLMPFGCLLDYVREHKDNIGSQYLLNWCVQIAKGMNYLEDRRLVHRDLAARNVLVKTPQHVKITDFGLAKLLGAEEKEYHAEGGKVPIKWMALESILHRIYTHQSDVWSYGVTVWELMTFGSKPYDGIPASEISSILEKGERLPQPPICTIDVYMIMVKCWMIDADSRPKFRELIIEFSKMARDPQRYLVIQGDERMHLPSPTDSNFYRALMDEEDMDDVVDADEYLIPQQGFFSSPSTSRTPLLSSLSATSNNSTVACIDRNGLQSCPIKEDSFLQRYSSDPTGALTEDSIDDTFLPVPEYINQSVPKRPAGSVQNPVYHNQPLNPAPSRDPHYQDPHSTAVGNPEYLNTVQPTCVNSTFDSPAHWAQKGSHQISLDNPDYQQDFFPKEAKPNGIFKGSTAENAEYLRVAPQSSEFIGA

src = test: Immunoblot analysis of src phosphorylation; assay type: cell-based; conditions: sarcosine-treated PrEC compared to alanine-treated controls
From the text: (§3) Also total EGFR levels were elevated upon treatment with alanine or sarcosine. […]. […] This observation was further strengthened using both antibody-mediated inhibition of EGFRactivity and siRNA-mediated knock-down of receptor levels.

p38MAPK = test: Immunoblot analysis of p38MAPK phosphorylation; assay type: cell-based; conditions: sarcosine-treated PrEC
From the text: as §3

[4] = control non-target siRNA-transfected cells

Row | total EGFR levels (EGFR) | SMILES | invasion upon exogenous amino acid addition, mean±SEM (RWPE cells [3]; GNMT knockdown) | invasion upon exogenous amino acid addition, mean±SEM (RWPE cells [3]; [4]) | other results
1 | – | C#Cc1cccc(Nc2ncnc3cc(OCCOC)c(OCCOC)cc23)c1 [erlotinib] | – | – | decrease in sarcosine-induced invasion (RWPE cells [1]): 2 fold
2 | – | NCC(=O)O [glycine] | 0.20±0.03 | 0.46±0.04 | induction of invasion [2]: also induced invasion in these cells, although to a lesser degree than sarcosine
3 | elevated | CNCC(=O)O [sarcosine, N-methylglycine] | 0.64±0.07 | 0.65±0.05 | EGFR phosphorylation (EGFR; sarcosine-treated PrEC compared to alanine-treated controls): time-dependent increase; src phosphorylation (src): time-dependent increase; p38MAPK phosphorylation (p38MAPK): phosphorylation of p38MAPK
4 | elevated | C[C@H](N)C(=O)O [alanine, reference compound] | – | – | –
